Experiment: Toxicology in rats, oral, histopathology
Format: in vivo
Settings: rat, in vivo, po
Source text: After 32 days, the rats were sacrificed and their organs were examined under a microscope.

O.O.O.O.[Na+].[O-]B1OO1 [sodium perborate tetrahydrate]
0/10: LUNG Lymphocytic infiltration, No Exam (1 mg/kg) | LUNG Notable or abnormal, No Exam (1 mg/kg) | LUNG Pulmonary edema, No Exam (1 mg/kg) | PANCREAS Notable or abnormal, No Exam (1 mg/kg) | SPLEEN Notable or abnormal, No Exam (1 mg/kg) | STOMACH Notable or abnormal, No Exam (1 mg/kg) | HEART Notable or abnormal, No Exam (2 mg/kg) | INTESTINE, Large Notable or abnormal, No Exam (2 mg/kg) | INTESTINE, Small Notable or abnormal, No Exam (2 mg/kg) | KIDNEY Edema, No Exam (2 mg/kg) | KIDNEY Notable or abnormal, No Exam (2 mg/kg) | LIVER Fattening, No Exam (2 mg/kg) | LIVER Infiltration, No Exam (2 mg/kg) | LIVER Notable or abnormal, No Exam (2 mg/kg) | LUNG Lymphocytic infiltration, No Exam (2 mg/kg) | LUNG Notable or abnormal, No Exam (2 mg/kg) | LUNG Pulmonary edema, No Exam (2 mg/kg) | PANCREAS Notable or abnormal, No Exam (2 mg/kg) | SPLEEN Notable or abnormal, No Exam (2 mg/kg) | STOMACH Notable or abnormal, No Exam (2 mg/kg) | HEART Notable or abnormal, No Exam (4 mg/kg) | INTESTINE, Large Notable or abnormal, No Exam (4 mg/kg) | INTESTINE, Small Notable or abnormal, No Exam (4 mg/kg)
100%: LIVER Within normal limits, % (1 mg/kg) | LUNG Within normal limits, % (1 mg/kg) | PANCREAS Within normal limits, % (1 mg/kg) | SPLEEN Within normal limits, % (1 mg/kg) | STOMACH Within normal limits, % (1 mg/kg) | HEART Within normal limits, % (2 mg/kg) | INTESTINE, Large Within normal limits, % (2 mg/kg) | INTESTINE, Small Within normal limits, % (2 mg/kg) | KIDNEY Within normal limits, % (2 mg/kg) | LIVER Within normal limits, % (2 mg/kg) | LUNG Within normal limits, % (2 mg/kg) | PANCREAS Within normal limits, % (2 mg/kg) | SPLEEN Within normal limits, % (2 mg/kg) | STOMACH Within normal limits, % (2 mg/kg) | HEART Within normal limits, % (4 mg/kg) | INTESTINE, Large Within normal limits, % (4 mg/kg) | INTESTINE, Small Within normal limits, % (4 mg/kg)
0%: LUNG Lymphocytic infiltration, % (1 mg/kg) | LUNG Notable or abnormal, % (1 mg/kg) | LUNG Pulmonary edema, % (1 mg/kg) | PANCREAS Notable or abnormal, % (1 mg/kg) | SPLEEN Notable or abnormal, % (1 mg/kg) | STOMACH Notable or abnormal, % (1 mg/kg) | HEART Notable or abnormal, % (2 mg/kg) | INTESTINE, Large Notable or abnormal, % (2 mg/kg) | INTESTINE, Small Notable or abnormal, % (2 mg/kg) | KIDNEY Edema, % (2 mg/kg) | KIDNEY Notable or abnormal, % (2 mg/kg) | LIVER Fattening, % (2 mg/kg) | LIVER Infiltration, % (2 mg/kg) | LIVER Notable or abnormal, % (2 mg/kg) | LUNG Lymphocytic infiltration, % (2 mg/kg) | LUNG Notable or abnormal, % (2 mg/kg) | LUNG Pulmonary edema, % (2 mg/kg) | PANCREAS Notable or abnormal, % (2 mg/kg) | SPLEEN Notable or abnormal, % (2 mg/kg) | STOMACH Notable or abnormal, % (2 mg/kg) | HEART Notable or abnormal, % (4 mg/kg) | INTESTINE, Large Notable or abnormal, % (4 mg/kg) | INTESTINE, Small Notable or abnormal, % (4 mg/kg) | KIDNEY Edema, % (4 mg/kg)
10/10: LIVER Within normal limits, No Exam (1 mg/kg) | LUNG Within normal limits, No Exam (1 mg/kg) | PANCREAS Within normal limits, No Exam (1 mg/kg) | SPLEEN Within normal limits, No Exam (1 mg/kg) | STOMACH Within normal limits, No Exam (1 mg/kg) | HEART Within normal limits, No Exam (2 mg/kg) | INTESTINE, Large Within normal limits, No Exam (2 mg/kg) | INTESTINE, Small Within normal limits, No Exam (2 mg/kg) | KIDNEY Within normal limits, No Exam (2 mg/kg) | LIVER Within normal limits, No Exam (2 mg/kg) | LUNG Within normal limits, No Exam (2 mg/kg) | PANCREAS Within normal limits, No Exam (2 mg/kg) | SPLEEN Within normal limits, No Exam (2 mg/kg) | STOMACH Within normal limits, No Exam (2 mg/kg) | HEART Within normal limits, No Exam (4 mg/kg) | INTESTINE, Large Within normal limits, No Exam (4 mg/kg) | INTESTINE, Small Within normal limits, No Exam (4 mg/kg)

— patent publication US20230263825A1, “ANTI-CANCER ACTIVITY OF PERBORATE SALTS” (priority 2020, published 2023)
